# Measurements published in PubChem BioAssay AID1963835 (Molecular Pharmacology Branch, DTP, NCI, 2024).
# Tested on: 699152-130-R-J1-PDC complex spheroid viability
# Assay: Anticancer human tumor 699152-130-R-J1-PDC patient-derived pancreatic carcinoma cell line growth inhibition [POLQ]
# Settings: for IC50: curve of first compound; for viability, T/C: stronger effect = lower value
# In short: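 Growth inhibition in 3D: complex spheroids (tumor PDC, HUVEC, MSC) treated with POLQ inhibitor combinations; where Cmax unknown, highest tested concentration 10 microM, except SN-38 at 1 microM.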
# [1] = second compound 0.0316 µM, first compound 0.0316 µM
# [2] = second compound 0.0316 µM, first compound 0.1 µM
# [3] = second compound 0.0316 µM, first compound 0.316 µM
# [4] = second compound 0.0316 µM, first compound 1 µM
# [5] = second compound 0.0316 µM, first compound 3.16 µM
# [6] = second compound 0.0316 µM, first compound 10 µM
# [7] = second compound 0.1 µM, first compound 0.0316 µM
# [8] = second compound 0.1 µM, first compound 0.1 µM
# [9] = second compound 0.1 µM, first compound 0.316 µM
# [10] = second compound 0.1 µM, first compound 1 µM
# [11] = second compound 0.1 µM, first compound 3.16 µM
# [12] = second compound 0.1 µM, first compound 10 µM
# [13] = second compound 0.316 µM, first compound 0.0316 µM
# [14] = second compound 0.316 µM, first compound 0.1 µM
# [15] = second compound 0.316 µM, first compound 0.316 µM
# [16] = second compound 0.316 µM, first compound 1 µM
# [17] = second compound 0.316 µM, first compound 3.16 µM
# [18] = second compound 0.316 µM, first compound 10 µM
# [19] = second compound 1 µM, first compound 0.0316 µM
# [20] = second compound 1 µM, first compound 0.1 µM
# [21] = second compound 1 µM, first compound 0.316 µM
# [22] = second compound 1 µM, first compound 1 µM
# [23] = second compound 1 µM, first compound 3.16 µM
# [24] = second compound 1 µM, first compound 10 µM
# [25] = second compound 3.16 µM, first compound 0.0316 µM
# [26] = second compound 3.16 µM, first compound 0.1 µM
# [27] = second compound 3.16 µM, first compound 0.316 µM
# [28] = second compound 3.16 µM, first compound 1 µM
# [29] = second compound 3.16 µM, first compound 3.16 µM
# [30] = second compound 3.16 µM, first compound 10 µM
# [31] = second compound 10 µM, first compound 0.0316 µM
# [32] = second compound 10 µM, first compound 0.1 µM
# [33] = second compound 10 µM, first compound 0.316 µM
# [34] = second compound 10 µM, first compound 1 µM
# [35] = second compound 10 µM, first compound 3.16 µM
# [36] = second compound 10 µM, first compound 10 µM
# 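Also: spheroids exposed to agents for 7 days before viability reading.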
# 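For viability, T/C in this document: percent of DMSO vehicle control viability so 100% = vehicle and 0% = no viable signal.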
compound,measurement,setting,value
COc1ccc([C@@H](O)c2cc(-c3ncnc4cc(N5CCOCC5)ccc34)c(F)cc2Cl)nn1 + COC1C(OC(N)=O)C(O)C(Oc2ccc3c(O)c(NC(=O)c4ccc(O)c(CC=C(C)C)c4)c(=O)oc3c2C)OC1(C)C,IC50,second compound 0.0316 µM,3.83 µM
same,IC50,second compound 0.1 µM,4.13 µM
same,IC50,second compound 0.316 µM,3.83 µM
same,IC50,second compound 1 µM,3.58 µM
same,IC50,second compound 3.16 µM,4.02 µM
same,IC50,second compound 10 µM,4.25 µM
same,"viability, T/C",[1],94.5%
same,"viability, T/C",[2],96.9%
same,"viability, T/C",[3],85.6%
same,"viability, T/C",[4],82.8%
same,"viability, T/C",[5],53.9%
same,"viability, T/C",[6],26.3%
same,"viability, T/C",[7],112%
same,"viability, T/C",[8],87%
same,"viability, T/C",[9],87%
same,"viability, T/C",[10],83%
same,"viability, T/C",[11],56.1%
same,"viability, T/C",[12],27.4%
same,"viability, T/C",[13],113%
same,"viability, T/C",[14],107%
same,"viability, T/C",[15],92.2%
same,"viability, T/C",[16],80.4%
same,"viability, T/C",[17],54.7%
same,"viability, T/C",[18],24%
same,"viability, T/C",[19],118%
same,"viability, T/C",[20],98.1%
same,"viability, T/C",[21],96.9%
same,"viability, T/C",[22],70.1%
same,"viability, T/C",[23],58.5%
same,"viability, T/C",[24],22.6%
same,"viability, T/C",[25],98.3%
same,"viability, T/C",[26],108%
same,"viability, T/C",[27],86.6%
same,"viability, T/C",[28],88.7%
same,"viability, T/C",[29],56.2%
same,"viability, T/C",[30],21.6%
same,"viability, T/C",[31],101%
same,"viability, T/C",[32],90.8%
same,"viability, T/C",[33],90.9%
same,"viability, T/C",[34],71.6%
same,"viability, T/C",[35],60.6%
same,"viability, T/C",[36],27.7%
CCCS(=O)(=O)Nc1ccc(F)c(C(=O)c2c[nH]c3ncc(-c4ccc(Cl)cc4)cc23)c1F + Cc1cccc(N(C)C(=O)C2C(O)CCN2c2nc(C)cc(C(F)(F)F)c2C#N)c1,IC50,second compound 0.0316 µM,8.18 µM
same,IC50,second compound 0.1 µM,8.55 µM
same,IC50,second compound 0.316 µM,8.18 µM
same,IC50,second compound 1 µM,8.6 µM
same,IC50,second compound 3.16 µM,8.56 µM
same,IC50,second compound 10 µM,8.17 µM
same,"viability, T/C",[1],110%
same,"viability, T/C",[2],101%
same,"viability, T/C",[3],120%
same,"viability, T/C",[4],162%
same,"viability, T/C",[5],175%
same,"viability, T/C",[6],32.2%
same,"viability, T/C",[7],105%
same,"viability, T/C",[8],103%
same,"viability, T/C",[9],126%
same,"viability, T/C",[10],143%
same,"viability, T/C",[11],199%
same,"viability, T/C",[12],36.5%
same,"viability, T/C",[13],103%
same,"viability, T/C",[14],99.5%
same,"viability, T/C",[15],125%
same,"viability, T/C",[16],159%
same,"viability, T/C",[17],195%
same,"viability, T/C",[18],31.6%
same,"viability, T/C",[19],109%
same,"viability, T/C",[20],112%
same,"viability, T/C",[21],141%
same,"viability, T/C",[22],152%
same,"viability, T/C",[23],172%
same,"viability, T/C",[24],36.6%
same,"viability, T/C",[25],124%
same,"viability, T/C",[26],112%
same,"viability, T/C",[27],118%
same,"viability, T/C",[28],140%
same,"viability, T/C",[29],181%
same,"viability, T/C",[30],36.5%
same,"viability, T/C",[31],117%
same,"viability, T/C",[32],103%
same,"viability, T/C",[33],134%
same,"viability, T/C",[34],146%
same,"viability, T/C",[35],175%
same,"viability, T/C",[36],31.7%
Nc1ccn(C2OC(CO)C(O)C2(F)F)c(=O)n1 (stereo unspecified) + Nc1ccc(C#CCN(C(=O)Cc2ncc(C(F)(F)F)cc2C(F)(F)F)c2ccc(F)cc2)nn1,IC50,second compound 0.0316 µM,0.476 µM
same,IC50,second compound 0.1 µM,0.771 µM
same,IC50,second compound 0.316 µM,1.77 µM
same,IC50,second compound 1 µM,2.37 µM
same,IC50,second compound 3.16 µM,1.44 µM
same,IC50,second compound 10 µM,2.16 µM
same,"viability, T/C",[1],71.5%
same,"viability, T/C",[2],58.8%
same,"viability, T/C",[3],50.5%
same,"viability, T/C",[4],46.9%
same,"viability, T/C",[5],50%
same,"viability, T/C",[6],43%
same,"viability, T/C",[7],78.4%
same,"viability, T/C",[8],65.5%
same,"viability, T/C",[9],52%
same,"viability, T/C",[10],46%
same,"viability, T/C",[11],55.6%
same,"viability, T/C",[12],37.5%
same,"viability, T/C",[13],81.3%
same,"viability, T/C",[14],60.5%
same,"viability, T/C",[15],55.9%
same,"viability, T/C",[16],55.4%
same,"viability, T/C",[17],49.6%
same,"viability, T/C",[18],44.6%
same,"viability, T/C",[19],79.2%
same,"viability, T/C",[20],63.9%
same,"viability, T/C",[21],57.4%
same,"viability, T/C",[22],58.5%
same,"viability, T/C",[23],51.5%
same,"viability, T/C",[24],41%
same,"viability, T/C",[25],84.2%
same,"viability, T/C",[26],68.3%
same,"viability, T/C",[27],55.2%
same,"viability, T/C",[28],55.3%
same,"viability, T/C",[29],49%
same,"viability, T/C",[30],40%
same,"viability, T/C",[31],103%
same,"viability, T/C",[32],82.8%
same,"viability, T/C",[33],63.1%
same,"viability, T/C",[34],52.8%
same,"viability, T/C",[35],50.9%
same,"viability, T/C",[36],44.9%
